The record followed here is patent publication US9017681B2, “Adenylyl cyclases as novel targets for antibactrial interventions” (Cornell Research Foundation, Inc., priority 2007, dated 2015).

This assay concerns the target T1, human sAC (Homo sapiens, UniProt Q96PN6).
T1 construct: made in house
T1 sequence (Q96PN6 1-469 limits assumed): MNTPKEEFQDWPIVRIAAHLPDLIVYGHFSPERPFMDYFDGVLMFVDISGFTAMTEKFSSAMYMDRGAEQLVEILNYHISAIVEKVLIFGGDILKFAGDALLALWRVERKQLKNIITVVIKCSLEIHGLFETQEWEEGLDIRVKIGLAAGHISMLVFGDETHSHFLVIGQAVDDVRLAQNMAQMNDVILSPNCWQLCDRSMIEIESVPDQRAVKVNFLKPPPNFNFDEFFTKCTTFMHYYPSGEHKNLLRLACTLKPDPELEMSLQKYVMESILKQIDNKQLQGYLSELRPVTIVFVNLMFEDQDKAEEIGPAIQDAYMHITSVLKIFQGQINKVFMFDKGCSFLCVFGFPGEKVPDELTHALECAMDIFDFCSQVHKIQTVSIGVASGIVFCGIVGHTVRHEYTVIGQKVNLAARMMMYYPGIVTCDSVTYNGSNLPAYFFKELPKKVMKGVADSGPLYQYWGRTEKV
Description: in vitro adenylyl cyclase assay with purified human sAC protein (cAMP by Correlate-EIA). It is filed as biochemical. Here is the method:
Purified human sAC protein was used in an in vitro adenylyl cyclase assay. Purification of the protein is described in detail in Litvin et al. 2003. (J. Biol. Chem. 278:15922-15926). This paper also describes the general conditions for a sAC cyclase assay. The specific conditions for the in vitro assay are as follows.
For basal sAC activity, an assay master mixture with sufficient volume for all reactions was prepared containing:
100 U/ml creatine phosphokinase (CPK)
An aliquot of the master mixture was added to the purified human sAC. The assay mixture also included the indicated concentration of KH compound, or an equivalent volume of vehicle (i.e., DMSO) as control. The reaction was started by adding 5 mM ATP (total assay volume=100 μL). The reaction mixture was incubated at 30° C. for 30 minutes and then stopped by adding 100 μl […]. Stimulated assay conditions involve adding 40 mM bicarbonate and 5 mM CaCl2 to the above master mixture.
Cyclic AMP levels were measured in each sample using the Correlate-EIA Direct Cyclic AMP assay kit from Assay Designs as per manufacturers instructions.

Setting [1] is: 100 μM of compound, BASAL human sAC in vitro activity, read-out: % Inhibition (100 μM), hsACt-Basal.
[2] abbreviates: 100 μM of compound, stimulated human sAC in vitro activity.
Setting [3] is: BASAL activity of human sAC in vitro (just Mg-ATP, no calcium or bicarbonate), read-out: hsACt-Basal approximate IC50 (or the dose range where the IC50 should lie).
The mark [4] stands for this setting: stimulated activity of human sAC in vitro (calcium and bicarbonate stimulated), read-out: hsACt-Stim. approximate IC50 (or the dose range where the IC50 should lie).
Setting [5] is: 100 μM of compound, stimulated human sAC in vitro activity, read-out: % Inhibition (100 μM), hsACt-Stim.

Read-outs that look alike come from different tables or passages of the source. Bounds are passed on as bounds.

The inhibition is how much of the control response was suppressed. As a reminder, the IC50 is the concentration that gives 50% inhibition. Turning to `O=C(CSc1nc2ccccc2[nH]1)N/N=C/c1ccc(Cl)cc1` [KH7.137], the inhibition at 100 µM under setting [1] worked out at 0%. For the same compound, under setting [2], the “Activation, printed in column % Inhibition (100 μM), hsACt-Stim.” value is “Activation 100%”. Moreover, the IC50 under setting [3] is more than 100 µM and the concentration for half-maximal inhibition (IC50) under setting [4] fell in the range of 30 to 100 µM.
`O=C(CSc1nc2ccccc2[nH]1)N/N=C/c1ccc([N+](=O)[O-])cc1` [KH7.122]: the inhibition at 100 µM worked out at 50% under setting [1] and 50% under setting [5].
Turning to `O=C(CSc1nc2ccccc2[nH]1)N/N=C/c1cc([N+](=O)[O-])ccc1Cl` [KH7.155], the inhibition at 100 µM is, setting by setting: under setting [1], 0%; under setting [5], 0%. The concentration for half-maximal inhibition (IC50) by setting is: under setting [3], more than 100 µM; under setting [4], more than 100 µM.
`CCN(CC)c1ccc(/C=N/NC(=O)CSc2nc3ccccc3[nH]2)cc1` [KH7.136]: the inhibition at 100 µM by setting is: under setting [1], 80%; under setting [5], 40%. Besides, the half-inhibitory concentration (IC50) under setting [3] lay within 10 to 100 µM and the half-inhibitory concentration (IC50) under setting [4] was more than 100 µM.
Regarding `O=C(CSc1nc2ccccc2[nH]1)N/N=C/c1c(Cl)cccc1Cl` [KH7.130], the inhibition at 100 µM turned out to be 50% under setting [1] and 50% under setting [5].
For the compound `O=C(CSc1nc2ccccc2n1Cc1ccc(Cl)cc1)N/N=C\c1cc(Br)ccc1O` [KH7.144], the inhibition at 100 µM amounted to 70% under setting [1] and 80% under setting [5]. Moreover, the half-maximal inhibitory concentration (IC50) under setting [3] was found to be 1 µM and the 50% inhibitory concentration (IC50) under setting [4] was 1 µM.
Consider `O=C(CSc1nc2ccccc2[nH]1)N/N=C/c1ccc(C(F)(F)F)cc1` [KH7.150], for which the inhibition at 100 µM reads like this: under setting [1], 0%; under setting [5], 0%. Also, the 50% inhibitory concentration (IC50) under setting [3] was more than 100 µM and the IC50 under setting [4] was more than 100 µM.
With `O=C(CSc1nc2ccccc2[nH]1)N/N=C/c1ccccc1Cl` [KH7.133], under setting [1], the inhibition at 100 µM amounted to 60%. In addition, the 50% inhibitory concentration (IC50) under setting [3] fell in the range of 10 to 100 µM.
`O=C(CSc1nc2ccccc2n1Cc1ccccc1)N/N=C/c1cc(Br)ccc1O` [KH7.141]: the inhibition at 100 µM stood at 80% under setting [1] and 80% under setting [5]. The IC50 is 1 to 10 µM under setting [3] and 1 µM under setting [4].
Turning to `O=C(CSc1nc2ccccc2[nH]1)N/N=C/c1cccnc1` [KH7.123], the inhibition at 100 µM by setting is: under setting [1], 0%; under setting [5], 0%. Moreover, the IC50 under setting [3] is more than 100 µM and the IC50 under setting [4] is more than 100 µM.
Regarding `C/C(=N/NC(=O)CSc1nc2ccccc2[nH]1)c1ccc(F)cc1` [KH7.118], the inhibition at 100 µM worked out at 0% under setting [1] and 0% under setting [5]. Moreover, the IC50 by setting is: under setting [3], more than 100 µM; under setting [4], more than 100 µM.
On to `O=C(CSc1nc2ccccc2[nH]1)N/N=C/c1ccccc1Br` [KH7.131], for which the inhibition at 100 µM reads like this: under setting [1], 60%; under setting [5], 60%. Moreover, the IC50 is, setting by setting: under setting [3], 10 to 100 µM; under setting [4], 10 to 100 µM.
As to `O=C(CSc1nc2ccccc2[nH]1)N/N=C/c1cccc(F)c1` [KH7.153], the inhibition at 100 µM was determined as 0% under setting [1] and 0% under setting [5]. Also, the IC50 by setting is: under setting [3], more than 100 µM; under setting [4], more than 100 µM.
Turning to `O=C(CSc1nc2ccccc2[nH]1)N/N=C/c1cccc2ccccc12` [KH7.126], the inhibition at 100 µM amounted to 40% under setting [1] and 50% under setting [5]. In addition, the IC50 is, setting by setting: under setting [3], more than 100 µM; under setting [4], 10 to 100 µM.
For `C/C(=N/NC(=O)CSc1nc2ccccc2[nH]1)c1ccc(-c2ccccc2)cc1` [KH7.113], in that order: 80%, 80%, 10 to 100 µM and 10 to 100 µM.
For the compound `CC(C)c1ccc(/C=N/NC(=O)CSc2nc3ccccc3[nH]2)cc1` [KH7.135], the inhibition at 100 µM amounted to 50% under setting [1] and 0% under setting [5]. For the same compound, the IC50 under setting [4] was more than 100 µM.
As to `Cc1ccc(/C=N/NC(=O)CSc2nc3ccccc3[nH]2)cc1` [KH7.134], the inhibition at 100 µM is, setting by setting: under setting [1], 0%; under setting [5], 0%. In addition, the half-inhibitory concentration (IC50) under setting [3] was more than 100 µM and the half-maximal inhibitory concentration (IC50) under setting [4] is more than 100 µM.
`C/C(=N/NC(=O)CSc1nc2ccccc2[nH]1)c1cccc(Br)c1` [KH7.119]: the inhibition at 100 µM runs as follows: under setting [1], 60%; under setting [5], 80%. In addition, the half-maximal inhibitory concentration (IC50) under setting [3] lay within 10 to 100 µM and the concentration for half-maximal inhibition (IC50) under setting [4] was in the range of 10 to 100 µM.
As for `O=C(CSc1nc2ccccc2[nH]1)N/N=C/c1cc(I)cc(I)c1O` [KH7.154], the inhibition at 100 µM runs as follows: under setting [1], 100%; under setting [5], 85%. In addition, the IC50 runs as follows: under setting [3], 0.1 to 1 µM; under setting [4], 0.1 to 1 µM.
On to `CCOc1ccc(/C=N/NC(=O)CSc2nc3ccccc3[nH]2)cc1OC` [KH7.145], for which the inhibition at 100 µM was determined as 0% under setting [1] and 20% under setting [5]. Further, the IC50 is, setting by setting: under setting [3], more than 100 µM; under setting [4], more than 100 µM.
Consider `COc1ccc(/C=N/NC(=O)CSc2nc3ccccc3[nH]2)cc1Br` [KH7.151], for which the inhibition at 100 µM worked out at 75% under setting [1] and 50% under setting [5]. Besides, the IC50 reads like this: under setting [3], 10 to 100 µM; under setting [4], 10 to 100 µM.
As to `O=C(CSc1nc2ccccc2[nH]1)N/N=C/c1ccc(Cl)c([N+](=O)[O-])c1` [KH7.146], the inhibition at 100 µM by setting is: under setting [1], 50%; under setting [5], 40%. In addition, the 50% inhibitory concentration (IC50) under setting [4] was more than 100 µM.
With `C/C(=N/NC(=O)CSc1nc2ccccc2[nH]1)c1ccc(Cl)c(Cl)c1` [KH7.115], the inhibition at 100 µM is, setting by setting: under setting [1], 80%; under setting [5], 80%. Besides, the half-maximal inhibitory concentration (IC50) lay within 10 to 100 µM under setting [3] and 10 to 100 µM under setting [4].
For `O=C(CSc1nc2ccccc2[nH]1)N/N=C/c1ccccc1C(=O)O` [KH7.112], the inhibition at 100 µM was 0% under setting [1] and 0% under setting [5]. Moreover, the IC50 under setting [3] was more than 100 µM and the IC50 under setting [4] was more than 100 µM.
As to `COc1cc(/C=N/NC(=O)CSc2nc3ccccc3[nH]2)cc(OC)c1OC(C)=O` [KH7.124], the inhibition at 100 µM reads like this: under setting [1], 40%; under setting [5], 30%. Also, the IC50 by setting is: under setting [3], more than 100 µM; under setting [4], more than 100 µM.
On to `O=C(CSc1nc2ccccc2[nH]1)N/N=C/c1cc(Br)cc(Br)c1O` [KH7.149], for which the inhibition at 100 µM under setting [1] came to 90% and the inhibition at 100 µM under setting [5] is 85%. Further, the IC50 was 1 µM under setting [3] and 1 µM under setting [4].
Take `O=C(CSc1nc2ccccc2[nH]1)N/N=C/c1ccccc1I` [KH7.121]: the inhibition at 100 µM reads like this: under setting [1], 90%; under setting [5], 90%. In addition, the IC50 under setting [3] lay in the range of 10 to 100 µM and the half-inhibitory concentration (IC50) under setting [4] lay in the range of 10 to 100 µM.
In the case of `O=C(CSc1nc2ccccc2[nH]1)N/N=C/c1cc(Br)ccc1F` [KH7.152], the inhibition at 100 µM under setting [1] was 60%. For the same compound, the IC50 under setting [3] lay in the range of 10 to 100 µM.
Regarding `C/C(=N/NC(=O)CSc1nc2ccccc2[nH]1)c1cccnc1` [KH7.116], for the setting “100 μM of compound, BASAL human sAC in vitro activity”, the “Activation, printed in column % Inhibition (100 μM), hsACt-Basal” value is “Activation 30%”. Under setting [2], the “Activation, printed in column % Inhibition (100 μM), hsACt-Stim.” value was “Activation 50%”. For the same compound, the 50% inhibitory concentration (IC50) under setting [4] lay within 0.1 to 1 µM.
Turning to `COc1ccc(/C=N/NC(=O)CSc2nc3ccccc3[nH]2)cc1` [KH7.132], the inhibition at 100 µM came to 10% under setting [1] and 0% under setting [5]. Besides, the IC50 by setting is: under setting [3], more than 100 µM; under setting [4], more than 100 µM.
As to `O=C(CSc1nc2ccccc2[nH]1)N/N=C/c1cccc(Cl)c1` [KH7.128], the inhibition at 100 µM reads like this: under setting [1], 50%; under setting [5], 50%.
Turning to `Cc1ccc(Cn2c(SCC(=O)N/N=C/c3cc(Br)ccc3O)nc3ccccc32)cc1` [KH7.143], the inhibition at 100 µM under setting [1] amounted to 75% and the inhibition at 100 µM under setting [5] amounted to 75%. Besides, the IC50 stood at 1 µM under setting [3] and 1 µM under setting [4].
Consider `Cn1c(SCC(=O)N/N=C/c2cc(Br)ccc2O)nc2ccccc21` [KH7.139], for which the “% Inhibition (100 μM), hsACt-Basal” value (100 μM of compound, BASAL human sAC in vitro activity, 100 µM) is listed as 70%. Also, the inhibition at 100 µM is, setting by setting: under setting [1], 75%; under setting [5], 75%. Also, where the note is “100 μM of compound, stimulated human sAC in vitro activity, 100 µM”, the “% Inhibition (100 μM), hsACt-Stim.” value was determined as 70%. For the same compound, the IC50 is, setting by setting: under setting [3], 1 to 10 µM; under setting [4], 1 to 10 µM.
As to `Cc1ccc(Cn2c(SCC(=O)N/N=C/c3ccncc3)nc3ccccc32)cc1` [KH7.142], the inhibition at 100 µM under setting [1] came out at 0%. The “Activation in words, printed in column % Inhibition (100 μM), hsACt-Stim.” value (@ 100, stimulated human sAC in vitro activity) was “Activation @ 100”. Also, the IC50 reads like this: under setting [3], more than 100 µM; under setting [4], 1 to 10 µM.
